Data on one molecule can be found in ChEMBL document CHEMBL3832045, “DailyMed|setid=14ed9edd-bfd3-4fa4-9293-66666f779ba3 | TRIAMCINOLONE ACETONIDE - triamcinolone acetonide spray, metered|Physicians Total Care, Inc”.

Assay type in all cases: ADME, organism-based
Data set [1] in a line: (§1) Pharmacokinetic parameters for triamcinolone acetonide evaluated after intranasal administration of triamcinolone acetonide nasal spray. Conditions: human, in vivo, inhaled or intranasal, dosed compound id 47, dosed compound name TRIAMCINOLONE ACETONIDE, regimen Single dose, tissue Plasma. More on the design: dose 220 mcg, route intranasal, dose 110 to 440.
In the next data set the test system is Homo sapiens. Described as §1. Details: dose 220 mcg, route intranasal, dose 110 to 440. Conditions: in vivo, inhaled_or_intranasal, dose 220 mcg, dosed compound id 47, dosed compound name TRIAMCINOLONE ACETONIDE, regimen Single dose, route intranasal, tissue Plasma.
Data set [2] is described as follows: Evaluation of pharmacokinetic parameters for triamcinolone acetonide following intravenous dosing of triamcinolone acetonide phosphate ester in adults. Conditions: human, in vivo, dosed compound id 470, dosed compound name TRIAMCINOLONE ACETONIDE PHOSPHATE ESTER, tissue Plasma.

Regarding `CC1(C)O[C@@H]2C[C@H]3[C@@H]4CCC5=CC(=O)C=C[C@]5(C)[C@@]4(F)[C@@H](O)C[C@]3(C)[C@]2(C(=O)CO)O1` [TRIAMCINOLONE ACETONIDE], in data set [1] (dose 220 mcg, route intranasal), the Tmax (usually the time from dosing to the highest level) worked out at 1.5 h and the half-life (in general, how long it takes for the measured level to halve) is 3.1 h. Further, the Cmax (as a rule, the peak of the concentration-time curve) in data set [1] was 0.5 ng/mL. Besides, the AUC (in general, the area under the concentration-time curve, a measure of exposure) in data set [1] (read-out: AUC(0 to inf)) lay within 1.4 to 4.7 ng·h/mL. In the data set with Homo sapiens, this molecule displayed a t1/2 of 3.1 h. Also, in data set [2], the Vd – broadly, the apparent volume that relates the amount in the body to the concentration in plasma or blood – turned out to be 99.5 L; the clearance – broadly, the rate of elimination divided by the concentration – is 753 mL/min; the half-life was 1.47 h.
